From PubChem BioAssay (NCI)
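Values below derive from 48-hour exposures of cells grown in 96-well plates, with endpoints linearly interpolated between the two concentrations bracketing the appropriate inhibition level. GI50 marks 50% less growth. At the TGI there is no net growth.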

Key:
Test in all cases: NCI anticancer screen, dose series, 48 h; in the data active = GI50 below about 0.43 µM; inactive = the rest
[1] = test system: UO-31 renal
[2] = test system: K-562 leukemia
[3] = test system: OVCAR-5 ovarian
[4] = test system: MOLT-4 leukemia
[5] = test system: HL-60(TB) leukemia
[6] = test system: SF-268 CNS
[7] = test system: SK-MEL-5 melanoma
[8] = test system: HOP-62 NSCLC
[9] = test system: NCI-H460 lung
[10] = test system: A549 NSCLC
[11] = test system: ACHN renal
[12] = test system: MDA-MB-231 breast
[13] = test system: OVCAR-3 ovarian
[14] = test system: NCI/ADR-RES ovarian
[15] = test system: HS 578T breast
[16] = test system: HOP-92 NSCLC
[17] = test system: MCF7 breast
[18] = test system: RPMI-8226 leukemia
[19] = test system: IGROV1 ovarian
[20] = test system: A498 renal
[21] = test system: MDA-MB-435
[22] = test system: NCI-H23 lung
[23] = test system: KM12 colon
[24] = test system: LOX IMVI melanoma
[25] = test system: U251 CNS
[26] = test system: NCI-H226 lung
[27] = test system: CCRF-CEM leukemia
[28] = test system: T-47D breast
[29] = test system: RXF 393 renal
[30] = test system: UACC-62 melanoma
[31] = test system: MALME-3M melanoma
[32] = test system: SNB-19 CNS
[33] = test system: SN12C renal
[34] = test system: UACC-257 melanoma
[35] = test system: COLO 205 colon
[36] = test system: M14 melanoma
[37] = test system: TK-10 renal
[38] = test system: HCC-2998 colon
[39] = test system: BT-549 breast
[40] = test system: HT29 colon
[41] = test system: SK-MEL-28 melanoma
[42] = test system: DU-145 prostate
[43] = test system: OVCAR-8 ovarian
[44] = test system: NCI-H522 lung
[45] = test system: EKVX NSCLC
[46] = test system: 786-0 renal
[47] = test system: HCT-15 colon
[48] = test system: HCT-116 colon
[49] = test system: PC-3 prostate
[50] = test system: SR leukemia
[51] = test system: CAKI-1 renal
[52] = test system: SNB-75 CNS
[53] = test system: SK-OV-3 ovarian
[54] = test system: SW-620 colon
[55] = test system: SK-MEL-2 melanoma
[56] = test system: SF-539 CNS
[57] = test system: OVCAR-4 ovarian
[58] = test system: SF-295 CNS

CNC(=O)c1cncc(/C=C/c2c(C)cccc2C)c1
24.2 µM: TGI [15]
22.9 µM: TGI [16]
inactive: GI50 [1] 9.29 µM | GI50 [2] > 22.3 µM | GI50 [3] > 25 µM | GI50 [4] > 25 µM | GI50 [5] > 25 µM | GI50 [6] > 25 µM | GI50 [7] > 25 µM | GI50 [8] > 25 µM | GI50 [9] > 25 µM | GI50 [10] > 25 µM | GI50 [11] 16.3 µM | GI50 [12] 21.1 µM | GI50 [13] > 25 µM | GI50 [14] > 25 µM | GI50 [15] 7.19 µM | GI50 [16] 3.34 µM | GI50 [17] > 25 µM | GI50 [18] > 25 µM | GI50 [19] 12.9 µM | GI50 [20] 8.95 µM | GI50 [21] > 25 µM | GI50 [22] > 25 µM | GI50 [23] > 25 µM | GI50 [24] 16.2 µM | GI50 [25] > 25 µM | GI50 [26] > 25 µM | GI50 [27] > 25 µM | GI50 [28] > 25 µM | GI50 [29] 13.4 µM | GI50 [30] > 22.5 µM | GI50 [31] 16 µM | GI50 [32] > 25 µM | GI50 [33] 20.6 µM | GI50 [34] > 25 µM | GI50 [35] > 22.6 µM | GI50 [36] > 25 µM | GI50 [37] > 20.9 µM | GI50 [38] > 25 µM | GI50 [39] > 25 µM | GI50 [40] 16.2 µM | GI50 [41] > 25 µM | GI50 [42] > 25 µM | GI50 [43] > 25 µM | GI50 [44] > 17.8 µM | GI50 [45] > 25 µM | GI50 [46] > 25 µM | GI50 [47] > 25 µM | GI50 [48] > 25 µM | GI50 [49] > 25 µM | GI50 [50] > 25 µM | GI50 [51] 10.2 µM | GI50 [52] 4.83 µM | GI50 [53] > 25 µM | GI50 [54] > 25 µM | GI50 [55] > 25 µM | GI50 [56] 14.5 µM | GI50 [57] > 25 µM | GI50 [58] > 25 µM
> 18.2 µM: TGI [52]
> 25 µM: TGI [1] | TGI [2] | TGI [3] | TGI [4] | TGI [5] | TGI [6] | TGI [7] | TGI [8] | TGI [9] | TGI [10] | TGI [11] | TGI [12] | TGI [13] | TGI [14] | TGI [17] | TGI [18] | TGI [19] | TGI [20] | TGI [21] | TGI [22] | TGI [23] | TGI [24] | TGI [25] | TGI [26] | TGI [27] | TGI [28] | TGI [29] | TGI [30] | TGI [31] | TGI [32] | TGI [33] | TGI [34] | TGI [35] | TGI [36] | TGI [37] | TGI [38] | TGI [39] | TGI [40] | TGI [41] | TGI [42] | TGI [43] | TGI [44] | TGI [45] | TGI [46] | TGI [47] | TGI [48] | TGI [49] | TGI [50] | TGI [51] | TGI [53] | TGI [54] | TGI [55] | TGI [56] | TGI [57] | TGI [58]
